This note sets out measurements from patent US20200131144A1, “AMINE OR (THIO)AMIDE CONTAINING LXR MODULATORS” (Phenex-FXR GmbH, priority 2017, published 2020).

One assay addresses T1, LXRα full length (FL) (Homo sapiens, UniProt Q13133).
T1 construct: the full length (FL) proteins of LXRα (amino acids 1-447); NP005684; expressed in transfected cells; host or cells: HEK293
T1 sequence (Q13133 1-447): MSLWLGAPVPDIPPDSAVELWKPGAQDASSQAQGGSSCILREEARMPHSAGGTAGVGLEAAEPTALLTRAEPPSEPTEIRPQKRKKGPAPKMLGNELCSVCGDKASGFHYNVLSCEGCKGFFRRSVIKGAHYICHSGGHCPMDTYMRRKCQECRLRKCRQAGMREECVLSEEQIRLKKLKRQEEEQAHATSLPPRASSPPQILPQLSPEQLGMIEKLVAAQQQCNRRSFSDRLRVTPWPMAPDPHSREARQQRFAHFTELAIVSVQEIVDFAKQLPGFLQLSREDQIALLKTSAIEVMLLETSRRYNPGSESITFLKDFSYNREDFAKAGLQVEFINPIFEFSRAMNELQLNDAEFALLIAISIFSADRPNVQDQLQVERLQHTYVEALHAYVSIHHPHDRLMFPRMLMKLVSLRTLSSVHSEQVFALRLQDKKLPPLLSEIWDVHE
Description: LXR Gal4 reporter transient transfection assay, mammalian two-hybrid, FL-M2H Gal4α. To be noted: HEK293 cells; inverse agonist unless *. The format is cell-based. The method in brief: (§1)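 HEK293 cells transiently cotransfected with NFkB-AD fusions of full-length or LBD LXRα/β, GAL4-DBD fusions of SRC1 coactivator or NCoR corepressor domains, GAL4-driven firefly luciferase and Renilla control. Compound added 4 h post-transfection (≤0.2% DMSO), 16 h incubation; firefly and Renilla luminescence read sequentially.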

Another assay concerns the target T2, LXRβ full length (FL) (Homo sapiens, UniProt P55055, INS174Q).
T2 construct: the full length (FL) proteins of LXRα (amino acids 1-447); NP005684; NP009052; expressed in transfected cells; host or cells: HEK293
T2 sequence (P55055 with tags, fused parts or gaps INS174Q): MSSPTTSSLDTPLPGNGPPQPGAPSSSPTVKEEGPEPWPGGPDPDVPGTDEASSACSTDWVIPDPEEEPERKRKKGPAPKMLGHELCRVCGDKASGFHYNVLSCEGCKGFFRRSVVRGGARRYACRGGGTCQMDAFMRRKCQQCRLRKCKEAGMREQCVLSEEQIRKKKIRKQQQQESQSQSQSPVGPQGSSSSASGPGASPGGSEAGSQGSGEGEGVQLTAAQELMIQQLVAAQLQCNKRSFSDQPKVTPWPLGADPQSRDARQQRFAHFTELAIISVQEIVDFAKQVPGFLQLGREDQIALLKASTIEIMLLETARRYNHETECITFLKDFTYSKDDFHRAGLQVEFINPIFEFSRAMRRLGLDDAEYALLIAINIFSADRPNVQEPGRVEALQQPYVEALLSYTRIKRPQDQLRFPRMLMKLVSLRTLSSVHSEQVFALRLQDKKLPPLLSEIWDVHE
Description: LXR Gal4 reporter transient transfection assay, mammalian two-hybrid, FL-M2H Gal4β. The format is cell-based. To be noted: HEK293 cells; inverse agonist unless *. The essentials: as §1

The target of assay [1] is T3, GST-LXRβ ligand-binding domain (Homo sapiens, UniProt P55055, INS174Q).
T3 construct: amino acids 156-461; NP009052; made in house; host or cells: E. coli
T3 sequence (P55055 with tags, fused parts or gaps INS174Q limits assumed): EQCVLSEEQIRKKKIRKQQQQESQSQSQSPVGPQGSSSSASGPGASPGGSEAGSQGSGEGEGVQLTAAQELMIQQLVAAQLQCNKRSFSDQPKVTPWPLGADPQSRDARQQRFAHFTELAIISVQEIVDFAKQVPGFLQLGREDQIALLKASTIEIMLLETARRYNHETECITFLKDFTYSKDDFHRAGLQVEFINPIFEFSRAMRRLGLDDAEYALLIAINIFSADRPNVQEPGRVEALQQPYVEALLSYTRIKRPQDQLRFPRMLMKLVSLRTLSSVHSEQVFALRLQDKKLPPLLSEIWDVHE
Description: TR-FRETβ activity assay (NCoA3 coactivator peptide recruitment). It is filed as biochemical. Conditions: 1 μM 24(S)-25-epoxycholesterol as prestimulating agonist; inverse agonist unless *. The essentials: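 E. coli-expressed GST-LXRβ LBD (aa 156-461, 76 nM) with biotinylated NCoA3 peptide (400 nM), anti-GST-Tb cryptate donor and streptavidin-XL665 acceptor in 240 mM KCl, BSA, 0.002% Triton X-100. Equilibrated 1 h at 4° C; TR-FRET read at 615/665 nm, triplicates.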

Molecules are shown by their SMILES.

On to `Cc1cnc2cccnc2c1C(=O)N(Cc1ccc(C(F)(F)F)o1)Cc1ccc(-c2cccc(C(C)(C)C(=O)O)c2)cc1Cl` [27/115], for which the EC50 on LXRα full length (FL) is under 100 nM; on LXRβ full length (FL), under 100 nM; in assay [1], 100 to 1000 nM.

On to `Cc1nc2cccnn2c1C(=O)N(Cc1ccc(-c2cccc(C(C)(C)C(=O)O)c2)cc1)Cc1ccc(C(F)(F)F)o1` [27/116], for which the EC50 was in the range of 100 to 1000 nM on LXRα full length (FL), 100 to 1000 nM on LXRβ full length (FL) and 1000 to 10000 nM in assay [1].

With `Cc1nc2ncccn2c1C(=O)N(Cc1ccc(-c2cccc(C(C)(C)C(=O)O)c2)cc1)Cc1ccc(C(F)(F)F)o1` [27/117], the EC50 (at LXRα full length (FL); at LXRβ full length (FL); in assay [1]) was 1000 to 10000 nM in each case.

For the compound `Cc1nc2ccccn2c1C(=O)N(Cc1ccc(-c2cccc(C(C)(C)C(=O)O)c2)cc1)Cc1ccc(C(F)(F)F)o1` [27/118], the EC50 (at LXRα full length (FL); on LXRβ full length (FL); in assay [1]) was 100 to 1000 nM in each case.

For the compound `Cc1nc2ccccc2c(C(=O)N(Cc2ccc(-c3cccc(C(C)(C)C(=O)O)c3)cc2)Cc2ccc(C(F)(F)F)o2)c1O` [27/120], the EC50 fell in the range of 100 to 1000 nM at LXRα full length (FL), 100 to 1000 nM on LXRβ full length (FL) and 1000 to 10000 nM in assay [1].

`Cc1ccc2ncnn2c1C(=O)N(Cc1ccc(-c2cccc(C(C)(C)C(=O)O)c2)cc1)Cc1ccc(C(F)(F)F)o1` [27/121]: the EC50 (on LXRα full length (FL); on LXRβ full length (FL); in assay [1]) was under 100 nM in each case.

Regarding `Cc1nn2ncccc2c1C(=O)N(Cc1ccc(-c2cccc(C(C)(C)C(=O)O)c2)cc1)Cc1ccc(C(F)(F)F)o1` [27/122], the EC50 was 100 to 1000 nM on LXRα full length (FL), 100 to 1000 nM on LXRβ full length (FL) and 1000 to 10000 nM in assay [1].

As for `Cc1cc(C(=O)N(Cc2ccc(C(F)(F)F)o2)Cc2ccc(-c3cccc(C(C)(C)C(=O)O)c3)cc2Cl)c2ncccc2n1` [27/123], the EC50 is under 100 nM at LXRα full length (FL), under 100 nM on LXRβ full length (FL) and 100 to 1000 nM in assay [1].

Consider `COc1cnc2cccnc2c1C(=O)N(Cc1ccc(C(F)(F)F)o1)Cc1ccc(-c2cccc(C(C)(C)C(=O)O)c2)cc1Cl` [27/124], for which the EC50 (on LXRα full length (FL); at LXRβ full length (FL); in assay [1]) was under 100 nM in each case.

Turning to `Cc1ccc2nc(C)cc(C(=O)N(Cc3ccc(-c4cccc(C(C)(C)C(=O)O)c4)cc3)Cc3ccc(C(F)(F)F)o3)c2c1` [27/125], the EC50 is under 100 nM on LXRα full length (FL), under 100 nM at LXRβ full length (FL) and 100 to 1000 nM in assay [1].

Turning to `Cc1nc2cccnc2c(C(=O)N(Cc2ccc(-c3cccc(C(C)(C)C(=O)O)c3)cc2)Cc2ccc(C(F)F)o2)c1C` [27/126], the EC50 was under 100 nM at LXRα full length (FL), 100 to 1000 nM at LXRβ full length (FL) and 100 to 1000 nM in assay [1].

For the compound `Cc1cc(C(=O)N(Cc2ccc(-c3cccc(C(C)(C)C(=O)O)c3)cc2)Cc2ccc(C(F)(F)F)o2)c2ccc(F)cc2n1` [27/127], the EC50 at LXRα full length (FL) lay within 100 to 1000 nM; on LXRβ full length (FL), 100 to 1000 nM; in assay [1] it was 1000 to 10000 nM.

Turning to `CC(C)(C(=O)O)c1cccc(-c2ccc(CN(Cc3ccc(C(F)(F)F)o3)C(=O)c3cc(C4CC4)nc4ccccc34)cc2)c1` [27/129], the EC50 was 100 to 1000 nM at LXRα full length (FL), under 100 nM on LXRβ full length (FL) and 100 to 1000 nM in assay [1].

Consider `Cc1nc2cccnc2c(C(=O)N(Cc2ccc(-c3cccc(C(C)(C)C(=O)O)c3)cc2)Cc2nc(C(F)(F)F)cs2)c1C` [27/130], for which the EC50 on LXRα full length (FL) was under 100 nM; on LXRβ full length (FL), under 100 nM; in assay [1], 100 to 1000 nM.

For the compound `Cc1nc2cccnc2c(C(=O)N(Cc2ccc(-c3cccc(C(C)(C)C(=O)O)c3)cc2)Cc2cncc(C(F)(F)F)c2)c1C` [27/131], the EC50 (on LXRα full length (FL); at LXRβ full length (FL); in assay [1]) was 100 to 1000 nM each time.

As to `Cc1ccc(CN(Cc2ccc(-c3cccc(C(C)(C)C(=O)O)c3)cc2)C(=O)c2c(C)c(C)nc3cccnc23)o1` [27/132], the EC50 on LXRα full length (FL) was 100 to 1000 nM; at LXRβ full length (FL) it was under 100 nM; in assay [1], 1000 to 10000 nM.

As for `Cc1nc2cccnc2c(CN(Cc2ccc(-c3cccc(C(C)(C)C(=O)O)c3)cc2)Cc2ccc(C(F)(F)F)o2)c1C` [27/133], the EC50 at LXRα full length (FL) and at LXRβ full length (FL) was under 100 nM each time. The FRETβ result in assay [1] is listed as “C*”.

Turning to `Cc1nc2cnccc2c(C(=O)N(Cc2ccc(-c3cccc(C(C)(C)C(=O)O)c3)cc2)Cc2ccc(C(F)(F)F)o2)c1C` [27/135], the EC50 on LXRα full length (FL) is under 100 nM; on LXRβ full length (FL), under 100 nM; in assay [1] it was 100 to 1000 nM.

On to `Cc1cc(C)c(CN(Cc2ccc(-c3cccc(S(=O)(=O)CC(=O)NS(C)(=O)=O)c3)cc2)Cc2ccc(C(F)(F)F)o2)c(C)c1` [Example 2], for which the EC50 at LXRα full length (FL) was in the range of 1000 to 10000 nM; on LXRβ full length (FL) it was 100 to 1000 nM; in assay [1], 1000 to 10000 nM.

Take `Cc1cc(C)c(CN(Cc2ccc(-c3cccc(S(=O)(=O)CC(=O)NO)c3)cc2)Cc2ccc(C(F)(F)F)o2)c(C)c1` [Example 5, N-Hydroxy-2-((4′-((((5-(trifluoromethyl)furan-2-yl)methyl)(2,46-trimethylbenzyl)amino)methyl)-[1,1′-biphenyl]-3-yl)sulfonyl)acetamide]: the EC50 (at LXRα full length (FL); on LXRβ full length (FL); in assay [1]) was 100 to 1000 nM throughout.

For the compound `CONC(=O)CS(=O)(=O)c1cccc(-c2ccc(CN(Cc3ccc(C(F)(F)F)o3)Cc3c(C)cc(C)cc3C)cc2)c1` [Example 5/1], the EC50 (on LXRα full length (FL); on LXRβ full length (FL); in assay [1]) was 100 to 1000 nM throughout.

Turning to `Cc1cc(C)c(CN(Cc2ccc(C(F)(F)F)o2)Cc2ccc(-c3cccc(S(=O)(=O)CC(=O)O)c3)cc2F)c(C)c1` [Example 15, 2-((3′-Fluoro-4′-((((5-(trifluoromethyl)furan-2-yl)methyl)(2,4,6-trimethylbenzyl)amino)methyl)-[1,1′-biphenyl]-3-yl)sulfonyl)acetic acid], the EC50 on LXRα full length (FL) fell in the range of 100 to 1000 nM; at LXRβ full length (FL), 100 to 1000 nM; in assay [1], 1000 to 10000 nM.

On to `Cc1ccc2ccccc2c1C(=O)N(Cc1ccc(C(F)(F)F)o1)Cc1ccc(-c2cccc(C(C)(C)C(=O)O)c2)cc1C(N)=O` [Example 17], for which the EC50 is 1000 to 10000 nM on LXRα full length (FL), 100 to 1000 nM at LXRβ full length (FL) and over 10000 nM in assay [1].

In the case of `COc1cc(CN(Cc2ccc(C(F)(F)F)o2)Cc2c(C)ccc3ccccc23)ccc1-c1cc(F)c(CO)c(S(=O)(=O)CC(=O)O)c1` [Example 22, 2-((5-Fluoro-4-(hydroxymethyl)-2′-methoxy-4′-((((2-methylnaphthalen-1-yl)methyl)((5-(trifluoromethyl)furan-2-yl)methyl)amino)methyl)-[1,1′-biphenyl]-3-yl)sulfonyl)acetic acid], the values for the concentration giving a half-maximal response (EC50) (on LXRα full length (FL); on LXRβ full length (FL); in assay [1]) were 1000 to 10000 nM, 100 to 1000 nM and over 10000 nM, respectively.

With `Cc1ccc2ccccc2c1C(=O)N(Cc1ccc(-c2cccc(S(=O)(=O)CC(=O)O)c2)cc1)Cc1ccc(C(F)(F)F)n1C` [Example 28, 2-((4′-((2-Methyl-N-((1-methyl-5-(trifluoromethyl)-1H-pyrrol-2-yl)methyl)-1-naphthamido)methyl)-[1,1′-biphenyl]-3-yl)sulfonyl)acetic acid], the results for the EC50 (on LXRα full length (FL); on LXRβ full length (FL); in assay [1]) were 100 to 1000 nM, 1000 to 10000 nM and over 10000 nM, respectively.
